Measured values published in patent US20210353577A1, “METHODS FOR THE PREPARATION OF A LEVOTHYROXINE SOLUTION” (EMP Levo US B.V., priority 2016, published 2021).
Like-named read-outs stand apart in the source and are kept apart here.

Assays:
[1] = cited from earlier work; for behaviour in an aqueous solution: GB2191695
[2] = tested on: micro-organisms as shown in the tables 10A-F; experiment: Efficacy of antimicrobial preservation, overall judgement; type: cell-based; settings: Ph. Eur. 9.0, section 5.1.3; in oral levothyroxine solution
From the text: Preservation Efficacy Tests […] As comparison, sample 1 of U.S. Pat. No. 9,345,722 has been prepared, in accordance with example 6 of U.S. Pat. No. 9,345,722. The test consists of challenging the sample solution with a prescribed inoculum of suitable micro-organisms as shown in the tables 10A-F, storing the inoculated solution at ambient temperature, avoiding sunlight, withdrawing samples from the container at specified intervals of time and counting the micro-organisms in the samples so removed. The preservative properties of the solution are adequate if, in the conditions of the test, there is a significant fall or no increase, as appropriate, in the number of micro-organisms in the inoculated solution after 14 and 28 days. ATCC stands for the deposit number of the micro-organism at the American Type Culture Collection ATCC.

Row | Structure (SMILES) | efficacy of antimicrobial preservation in words [2] | further results
1 | N[C@@H](Cc1cc(I)c(Oc2cc(I)c(O)c(I)c2)c(I)c1)C(=O)[O-].[Na+] [Levothyroxine sodium, sodium (2S)-2-amino-3-[4-(4-hydroxy-3,5-diiodophenoxy)-3,5-diiodophenyl]-propanoate] | – | solubility in 96% ethanol ([1]; 96% ethanol): slightly soluble; solubility in water ([1]; water): very slightly soluble
2 | O=C(O)c1ccccc1 [benzoic acid] | comply with the relevant criteria | –
3 | N[C@@H](Cc1cc(I)c(Oc2cc(I)c(O)c(I)c2)c(I)c1)C(=O)O [levothyroxine, 3,5,3′,5′-tetraiodo-L-thyronine] | – | behaviour in an aqueous solution ([1]; pH 11-12): dissolves; behaviour in an aqueous solution ([1]; pH lowered further to pH 5-6): formation of a precipitate; behaviour in an aqueous solution ([1]; pH lowered to pH 7): white pale suspension
4 | O=C([O-])c1ccccc1.[K+] [potassium benzoate] | results similar to that of sodium benzoate | –
5 | C/C=C/C=C/C(=O)[O-].[K+] [potassium sorbate] | results similar to that of sorbic acid | –
6 | O=C([O-])c1ccccc1.[Na+] [sodium benzoate] | comply with the relevant criteria | –
7 | COC(=O)c1ccc(O)cc1.[Na] [sodium methyl paraben, sodium methyl parahydroxybenzoate] | less efficient preservative | –
8 | C/C=C/C=C/C(=O)[O-].[Na+] [sodium sorbate] | results similar to that of sorbic acid | –
9 | C/C=C/C=C/C(=O)O [sorbic acid] | comply with the relevant criteria | –
